From the CheMixHub viscosity set
Values joined by “and” are separate entries in the source; they are usually repeats but may differ in a detail not shown here. Equal values may be shown once.

Assay: xn = mol fraction of the nth substance listed

CCCCCCCCCCCCCCCCCC(=O)O + CC(C)[C@@H]1CC[C@@H](C)C[C@H]1O
100 kPa, x1 = 0.1
Conditions | viscosity [mPa·s]
313.15 K | 16.61
318.15 K | 12.62
323.15 K | 9.81

C=CCC[n+]1ccn(CCCC)c1.[Br-] + O
viscosity [mPa·s], 101.33 kPa
Conditions | x1 = 0.0008989 | x1 = 0.00189 | x1 = 0.003585 | x1 = 0.005487 | x1 = 0.007167 | x1 = 0.008848
293.15 K | 1.032 | 1.064 | 1.12 | 1.182 | 1.24 | 1.289
298.15 K | 0.915 | 0.943 | 0.988 | 1.046 | 1.094 | 1.137
303.15 K | 0.818 | 0.844 | 0.883 | 0.931 | 0.975 | 1.011
308.15 K | 0.736 | 0.758 | 0.795 | 0.837 | 0.874 | 0.902
313.15 K | 0.667 | 0.687 | 0.719 | 0.757 | 0.789 | 0.815

C1CC[NH2+]C1.CCCCCCCC(=O)[O-] + CC#N
viscosity [mPa·s], 101 kPa
Conditions | x1 = 0.1601 | x1 = 0.2228 | x1 = 0.2843 | x1 = 0.3982 | x1 = 0.4849 | x1 = 0.609 | x1 = 0.6946 | x1 = 0.7891 | x1 = 0.9081
293.15 K | 5.42 | 6.71 | 7.22 | 11.37 | 13.54 | 18.24 | 24.41 | 33.6 | 51.93
298.15 K | 4.61 | 6.42 | 7.9 | 9.98 | 12.08 | 16.32 | 22.17 | 30.5 | 44.73
303.15 K | 3.37 | 3.58 | 5.31 | 8.14 | 9.96 | 14.01 | 17.35 | 24.21 | 35.95
308.15 K | 2.41 | 3.39 | 5.02 | 7.88 | 9.48 | 13.07 | 15.79 | 21.95 | 30.54
313.15 K | 1.92 | 2.99 | 4.35 | 6.59 | 8.46 | 10.7 | 14.2 | 18.22 | 25.69

O=C[C@H](O)[C@H](O)[C@H](O)CO + C[N+](C)(C)CCO.[Cl-]
100 kPa, x2 = 0.6
Conditions | viscosity [mPa·s]
313.2 K | 575.5
318.2 K | 374.3

Nc1ccccc1Cl + CCCCOCCO
303.15 K, 101 kPa
Conditions | viscosity [mPa·s]
x1 = 0.1461 | 3.066
x1 = 0.2298 | 3.194
x1 = 0.3377 | 3.344
x1 = 0.4573 | 3.496
x1 = 0.563 | 3.619
x1 = 0.6667 | 3.722
x1 = 0.7494 | 3.786
x1 = 0.8351 | 3.833
x1 = 0.9459 | 3.859

CCC(C)O (stereo unspecified) + CC#N
Conditions | viscosity [mPa·s]
293.15 K, 101 kPa, x2 = 0.1644 | 1.655

Cc1cccc(C)c1 + CCCCCCCCCCCC
323.15 K, 100 kPa
Conditions | viscosity
x1 = 0.453 | 0.682 mPa·s and 0.683 mPa·s
x1 = 0.757 | 0.538 mPa·s and 0.539 mPa·s

CCC(C)O (stereo unspecified) + c1ccccc1
303 K, 101.3 kPa
Conditions | viscosity [mPa·s]
x2 = 0.1032 | 1.95
x2 = 0.2077 | 1.52
x2 = 0.3084 | 1.204
x2 = 0.4086 | 0.9692
x2 = 0.511 | 0.8012
x2 = 0.5989 | 0.6995
x2 = 0.7027 | 0.6211
x2 = 0.7981 | 0.5854
x2 = 0.8973 | 0.5709
